Some results are limits rather than exact numbers.

Data on two compounds can be found in US8946478B2, “Benzamide derivative with anticancer activity and preparation method and use thereof” (Zhejiang Hisun Pharmaceutical Co., Ltd., priority 2010, dated 2015).

Holding throughout (assay): In vitro SRB tumor cell growth inhibition (GI50)
What all share (type): cell-based

Test [1] deals with human breast cancer cell strain MCF-7. The note with it: Homo sapiens, MCF7, 48 h, MCF-7 cells.
The test system of test [2] is human breast cancer cell strain MDA-MB435. The note with it: Homo sapiens, MDA-MB-435, 48 h, MDA-MB435 cells.
The subject of test [3] is human colon cancer cell strain Colo205. The note with it: Colo 205 cells, 48 h.
Test [4] concerns human colon cancer cell strain HCT-116. The note with it: Homo sapiens, HCT-116, 48 h, HCT-116 cells.
The next test has as its system human hepatoma HepG 2. The note with it: HepG2, HepG 2 cells, 48 h.
Another test concerns human leukemia HL-60. The note with it: Homo sapiens, HL-60, 48 h, HL-60 cells.
The subject of the next test is human leukemia K562. The note with it: Homo sapiens, K562, 48 h, K562 cells.
Test [5] relates to human lung cancer cell strain 95D. The note with it: Homo sapiens, 95-D, 48 h, 95D cells.
Test [6] deals with human lung cancer cell strain A549. The note with it: A549 cells, 48 h. The method in brief:
(§1)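 A549 and PANC-1 seeded at 10000 cells/well, OVCAR-5 and NCI460 at 5000 cells/well in DMEM/10% FBS, pre-incubated 24 h at 37 °C. Compounds added for 48 h, triplicate; cells TCA-fixed, SRB-stained, absorbance read at 515 nm with 690 nm blank. GI50 from dose-response curve, time-zero wells included.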

For test [7], the system named is human lung cancer cell strain NCI-460. The note with it: Homo sapiens, NCI-460, 48 h, NCI-460 cells. The method in brief: as §1
In test [8] the test system is human ovarian cancer cell strain HO8910. The note with it: HO-8910, HO8910 cells, 48 h.
The subject of test [9] is human ovarian cancer cell strain OVCAR-5. The note with it: OVCAR-5 cells, 48 h. The method in brief:
as §1

The test system of test [10] is human ovarian cancer cell strain OVCAR-8. The note with it: Homo sapiens, OVCAR-8, 48 h, OVCAR-8 cells.
In test [11] the test system is human ovarian cancer cell strain SKOV-3. The note with it: SK-OV-3, SKOV-3 cells, 48 h.
The subject of test [12] is human pancreatic cancer PANC-1. The note with it: Homo sapiens, PANC-1, 48 h, PANC-1 cells. The method in brief: as §1
The test system of test [13] is human prostate cancer BXPC-3. The note with it: BXPC-3 cells, 48 h.
In test [14] the test system is human prostate cancer DU145. The note with it: Homo sapiens, DU-145, 48 h, DU145 cells.
The subject of test [15] is human uterine cancer Hela. The note with it: Homo sapiens, HeLa, 48 h, Hela cells.

By GI50 is commonly meant the concentration giving 50% growth inhibition. Read a low GI50 as more potent growth inhibition. As for `NC(=O)c1ccc(I)c([N+](=O)[O-])c1` [BSI-201, 4-iodo-3-nitrobenzamide, reference compound], the GI50 is 40.1 µM in test [1]; 64.4 µM in [2]; 76 µM in [3]; 64.7 µM in [4]; greater than 100 µM in the test on human hepatoma HepG 2; 74.1 µM in the test on human leukemia HL-60. Besides, the GI50 is 44.6 µM in the test on human leukemia K562; 53.8 µM in test [5]; 105 µM in test [6]; greater than 100 µM in test [7]; 72.6 µM in test [8]; 61.1 µM in test [9]. Also, the GI50 came to 103 µM in test [10]; 38.5 µM in [11]; 25.5 µM in test [12]; 105 µM in test [13]; 86.6 µM in [14]; 64.7 µM in [15].

Consider `C#Cc1ccc(C(N)=O)cc1[N+](=O)[O-]` [Compound I-1, 4-ethynyl-3-nitrobenzamide], for which the GI50 in test [1] was determined as 2.47 µM; in [2], 2.05 µM; in [3], 4.84 µM; in test [4], 1.9 µM; with human hepatoma HepG 2, 8.73 µM; in the test with human leukemia HL-60, 2.11 µM. Also, the GI50 with human leukemia K562 amounted to 3.02 µM; in test [5], 1.88 µM; in test [6] it was 4.56 µM; in test [7], 10.9 µM; in test [8] it was 1.47 µM; in [9] it was 4.29 µM. The GI50 in [10] was found to be 11.7 µM; in test [11], 3.17 µM; in test [12], 7.41 µM; in [13], 4.68 µM; in test [14], 4.78 µM; in test [15], 5.28 µM.
